Experimental data: patent US20250213533A1 (GH RESEARCH IRELAND LIMITED, priority 2022, published 2025)

Key:
5-HT1A receptors = target: T1, 5-HT1A receptors (Homo sapiens, UniProt P08908); assay: Radioligand binding ([3H]8-OH-DPAT) to 5-HT1A receptors in post-mortem human hippocampus membranes
T1 construct: 5-HT1A and 5-HT2A receptors in post-mortem human brain tissue from the hippocampus and frontal cortex, respectively; tissue Edinburgh Sudden Death Brain Bank; host or cells: post-mortem human hippocampus membranes
T1 sequence (P08908 1-422): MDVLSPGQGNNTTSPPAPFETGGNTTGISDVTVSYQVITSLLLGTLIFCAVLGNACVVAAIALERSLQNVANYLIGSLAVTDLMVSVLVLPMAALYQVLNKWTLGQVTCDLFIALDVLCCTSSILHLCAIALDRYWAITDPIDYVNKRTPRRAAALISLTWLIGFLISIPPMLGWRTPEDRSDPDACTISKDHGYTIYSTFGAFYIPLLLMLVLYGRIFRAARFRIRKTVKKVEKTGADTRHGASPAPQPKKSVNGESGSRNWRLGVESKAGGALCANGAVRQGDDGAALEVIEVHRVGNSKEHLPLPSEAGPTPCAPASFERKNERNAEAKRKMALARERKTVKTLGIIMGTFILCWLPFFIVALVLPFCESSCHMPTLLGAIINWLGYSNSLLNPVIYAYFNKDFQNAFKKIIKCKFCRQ

5-HT2A receptors = target: T2, 5-HT2A receptors (Homo sapiens, UniProt P28223); assay: Radioligand binding ([3H]MDL-100,907) to 5-HT2A receptors in post-mortem human frontal cortex membranes
T2 construct: 5-HT1A and 5-HT2A receptors in post-mortem human brain tissue from the hippocampus and frontal cortex, respectively; tissue Edinburgh Sudden Death Brain Bank; host or cells: post-mortem human frontal cortex membranes
T2 sequence (P28223 whole entry): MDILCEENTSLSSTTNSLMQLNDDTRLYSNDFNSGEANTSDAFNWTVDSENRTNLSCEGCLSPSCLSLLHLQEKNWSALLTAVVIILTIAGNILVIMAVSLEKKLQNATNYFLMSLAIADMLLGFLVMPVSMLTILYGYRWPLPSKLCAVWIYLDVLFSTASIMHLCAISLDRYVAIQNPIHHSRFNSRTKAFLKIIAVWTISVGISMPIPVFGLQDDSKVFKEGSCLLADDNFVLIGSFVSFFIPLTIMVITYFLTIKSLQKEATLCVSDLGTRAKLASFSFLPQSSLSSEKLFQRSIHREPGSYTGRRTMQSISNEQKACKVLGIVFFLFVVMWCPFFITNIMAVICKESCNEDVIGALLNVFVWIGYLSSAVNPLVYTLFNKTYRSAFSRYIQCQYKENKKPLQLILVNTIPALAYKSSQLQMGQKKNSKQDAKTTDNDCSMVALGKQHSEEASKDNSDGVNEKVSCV

[1] = Pharmacokinetics of 5-MeO-DMT and bufotenine after inhalation of 5-MeO-DMT in subjects; type: in vivo, human

Row | SMILES | affinity for 5-HT1A receptors (in words) (5-HT1A receptors) | affinity for 5-HT2A receptors (in words) (5-HT2A receptors) | bufotenine blood concentration above LLOQ (25 pg/ml) ([1]; metabolite after inhaled 5-MeO-DMT) | bufotenine observations when uptitration subjects were included ([1]; uptitration scheme)
1 | CN(C)CCc1c[nH]c2ccccc12 [DMT, N,N-dimethyltryptamine] | moderate affinity | comparatively weak affinity | – | –
2 | CN(C)CCc1c[nH]c2ccc(O)cc12 [bufotenine] | – | – | Only in few samples | Substantially similar observations
3 | CN(C)CCc1c[nH]c2cccc(O)c12 [psilocin] | moderate affinity | moderate/strong affinity | – | –
